Laboratory results taken from patent publication US7037644B1, “Means and methods for monitoring non-nucleoside reverse transcriptase inhibitor antiretroviral therapy and guiding therapeutic decisions in the treatment of HIV/AIDS” (ViroLogic, Inc., priority 1998, dated 2006).
Entries after “also recorded” stand apart in the source; their conditions may differ.

Key:
Experiment in all cases: Phenotypic susceptibility assay (site directed mutant RTV)
Type in all cases: cell-based, HIV-1
V108I-RTV = conditions: for change in susceptibility (fold, IC50) vs wild type control RTV: V108I alone; for change in susceptibility: mutation at codon 108
Text: (§1) The resistance test vectors containing a functional luciferase gene cassette were constructed and host cells were transfected with the resistance test vector DNA. The resistant test vectors contained patient-derived reverse transcriptase and protease sequences that were either susceptible or resistant to the antiretroviral agents, such as nucleoside reverse transcriptase inhibitors, non-nucleoside reverse transcriptase inhibitors and protease inhibitors. The resistance test vector viral particles produced by transfecting the resistance test vector DNA into host cells, either in the presence or absence of protease inhibitors, were used to infect target host cells grown either in the absence of NRTI or NNRTI or in the presence of increasing concentrations of the drug. The amount of luciferase activity produced in infected target host cells in the presence of drug was compared to the amount of luciferase produced in infected target host cells in the absence of drug. Drug resistance was measured as the amount of drug required to inhibit by 50% the luciferase activity detected in the absence of drug (inhibitory concentration 50%, IC50). The IC50 values were determined by plotting percent drug inhibition vs. log10 drug concentration.
(§2) Host cells were seeded in 10-cm-diameter dishes and were transfected several days after plating with resistance test vector plasmid DNA and the envelope expression vector. Transfections were performed using a calcium-phosphate precipitation procedure. The cell culture media containing the DNA precipitate was replaced with fresh medium, from one to 24 hours, after transfection. Cell culture media containing resistance test vector viral particles was harvested one to four days after transfection and was passed through a […] filter before being stored at […]. HIV capsid protein (p24) levels in the harvested cell culture media were determined by an EIA method as described by the manufacturer (SIAC; Frederick, Md.). Before infection, target cells (293 and 293/T) were plated in cell culture media. Control infections were performed using cell culture media from mock transfections (no DNA) or transfections containing the resistance test vector plasmid DNA without the envelope expression plasmid. One to three or more days after infection the media was removed and cell lysis buffer (Promega) was added to each well. Cell lysates were assayed for luciferase activity (FIG. 3). The inhibitory effect of the drug was determined using the following equation: % luciferase inhibition=1−(RLUluc [drug]÷RLUluc)×100 where RLUluc [drug] is the relative light unit of luciferase activity in infected cells in the presence of drug and RLUluc is the Relative Light Unit of luciferase activity in infected cells in the absence of drug. IC50 values were obtained from the sigmoidal curves that were generated from the data by plotting the percent inhibition of luciferase activity vs. the log10 drug concentration. The drug inhibition curves are shown in (FIG. 3).
The V108I mutation was introduced into the resistance test vector using the mega-primer method for site directed mutagenesis (Sakar and Sommar, Ibid.). A resistance test vector containing the V108I mutation (V108I-RTV) was then tested using the phenotypic assay described earlier and the results were compared to those determined using a genetically defined resistance test vector that was wild type at position 108. We determined the pattern of phenotypic susceptibility to the NNRTIs, delaviridine, nevirapine and efavirenz, in the V108I-RTV.

K103N-RTV = conditions: for change in susceptibility: K103N; for loss of susceptibility (fold, IC50) vs wild type control RTV: K103N alone
Text: as §1, §2
The K101E, K103N and G190A mutations were introduced alone and in combination into resistance test vectors using the mega-primer method for site-directed mutagenesis (Sakar and Sommar, Ibid.).
(§3) The mutations Y188L, L100I and K103N were introduced alone and in combinationn into resistance test vectors using the mega-primer method for site-directed mutagenesis (Sakar and Sommar, Ibid.).

G190A-RTV = conditions: for change in susceptibility: alanine at position 190, no other NNRTI mutations
Text: as §1
as §2, with “IC50 values were obtained from the sigmoidal curves that were generated from the data by plotting the percent inhibition of luciferase activity vs. the log10 drug concentration. The drug inhibition curves are shown in (FIG. 3).” left out

A98G-RTV = conditions: for loss of susceptibility (fold, IC50) vs wild type control RTV: A98G alone; for change in susceptibility: mutation at codon 98
Text: as §1, §2
The A98G mutation into the resistance test vector using the mega-primer method for site-directed mutagenesis (Sakar and Sommar, Ibid.). A resistance test vector containing the A98G mutation (A98G-RTV) was then tested using the phenotypic assay described earlier and the results were compared to those determined using a genetically defined resistance test vector that was wild type at position 98. We determined the pattern of phenotypic susceptibility to the NNRTIs, delavirdine, nevirapine and efavirenz, in the A98G-RTV.

A98G-G190S-RTV = conditions: for change in susceptibility (fold, IC50) vs wild type control RTV: A98G and G190S, below 1 = increased susceptibility; for change in susceptibility: mutations at codons 98 and 190
Text: as §1, §2
The A98 and G190S mutations were introduced alone or in combination into the resistance test vector using the mega-primer method for site-directed mutagenesis (Sakar and Sommar, Ibid.). Resistance test vectors containing the A98G mutation (A98G-RTV), the G190S mutation (G190S-RTV) and both mutations (A98G-G190S-RTV) were then tested using the phenotypic assay described earlier and the results were compared to those determined using a genetically defined resistance test vector that was wild type at position 98 and 190. We determined the pattern of phenotypic susceptibility to the NNRTIs, delavirdine, nevirapine and efavirenz, in the three vectors.

E138A-RTV = conditions: E138A alone
Text: as §1, §2
(§4) The E138A mutation alone and in combination with Y188L was introduced into resistance test vectors using the mega-primer method for site-directed mutagenesis (Sakar and Sommar, Ibid.). Resistance rest vectors containing the E138A mutation (E138A-RTV) or he E138 mutation along with the […] mutation (E138A-Y188L-RTV) were then tested using the phenotypic assay described earlier and the results were compared to those determined using a genetically defined resistance test vector that was wild type at positions 188 and 138. We determined the pattern of phenotypic susceptibility to the NNRTIs, delavirdine, nevirapine and efavirenz, in the E138A-RTV, Y188L-RTV and E138-Y188L-RTV.

E138A-Y188L-RTV = conditions: for loss of susceptibility (fold, IC50) vs wild type control RTV: E138A and Y188L; for change in susceptibility: mutations at codons 138 and 188
Text: as §1, §2, §4

K103N-Y188L-RTV = conditions: for change in susceptibility: mutations at 103 and 188
Text: as §1, §2, §3

L100I-K103N-Y188L-RTV = conditions: mutations at 103 and 100 and 188
Text: as §1, §2, §3

L100I_K103N-RTV = conditions: for change in susceptibility: mutations at 100 and 103
Text: as §1, §2, §3

| SMILES | change in susceptibility (fold, IC50) vs wild type control RTV (V108I-RTV) [fold] | change in susceptibility (V108I-RTV) | change in susceptibility (K103N-RTV) | loss of susceptibility (fold, IC50) vs wild type control RTV (K103N-RTV) [fold] | change in susceptibility (G190A-RTV) | change in susceptibility (G190A-RTV; listed as delviridine) | loss of susceptibility (fold, IC50) vs wild type control RTV (A98G-RTV) [fold] | change in susceptibility (A98G-RTV) | change in susceptibility (fold, IC50) vs wild type control RTV (A98G-G190S-RTV) | change in susceptibility (A98G-G190S-RTV) | change in susceptibility (fold, IC50) vs wild type control RTV (E138A-RTV) [fold] | loss of susceptibility (fold, IC50) vs wild type control RTV (E138A-Y188L-RTV) | change in susceptibility (E138A-Y188L-RTV) | change in susceptibility (K103N-Y188L-RTV) | change in susceptibility (L100I-K103N-Y188L-RTV) | change in susceptibility (L100I_K103N-RTV) | change in susceptibility (fold, IC50) vs wild type control RTV (G190A-RTV; G190A alone) [fold] | loss of susceptibility (fold, IC50) vs wild type control RTV (K103N-Y188L-RTV; K103N and Y188L) | loss of susceptibility (fold, IC50) vs wild type control RTV (L100I_K103N-RTV; L100I and K103N) [fold] |
| --- | --- | --- | --- | --- | --- | --- | --- | --- | --- | --- | --- | --- | --- | --- | --- | --- | --- | --- | --- |
| CC(C)Nc1cccnc1N1CCN(C(=O)c2cc3cc(NS(C)(=O)=O)ccc3[nH]2)CC1 [delavirdine] | 1.3 | no change | reduced susceptibility; also recorded: resistance | 50 | increase | increased susceptibility | 3 | slight decrease | 0.8 fold | increase | 1.6 | 75 fold | moderate decrease | substantial decrease | substantial decrease | substantial decrease |  |  |  |
| O=C1Nc2ccc(Cl)cc2[C@@](C#CC2CC2)(C(F)(F)F)O1 [efavirenz] | 1.7 | no change |  | 30 |  |  | 3 | slight decrease | greater than 250 fold | substantial decrease | 1.4 | 88 fold | moderate decrese; also recorded: moderate decrease | substantial decrease | substantial decrease | substantial decrease | 8 |  |  |
| Cc1ccnc2c1NC(=O)c1cccnc1N2C1CC1 [nevirapine] | 3 | slight decrease | reduced susceptibility; also recorded: resistance | 55 | decrease |  | 8 | slight decrease | greater than 800 fold | substantial decrease | 1.3 | greater than 800 fold | substantial decrease | substantial decrease | substantial decrease | moderate decrease |  | greater than 800 fold | 70 |
